The values that follow come from patent US20240309003A1, “HETEROCYCLIC COMPOUNDS AS TRIGGERING RECEPTOR EXPRESSED ON MYELOID CELLS 2 AGONISTS AND METHODS OF USE” (Vigil Neuroscience, Inc., priority 2021, published 2024).

A value given as a limit tells only on which side of the number the result lay.

The target of the first experiment is T1, human TREM2 (Homo sapiens, UniProt Q9NZC2).
T1 construct: expressed in transfected cells; host or cells: HEK293T
T1 sequence (Q9NZC2 19-230): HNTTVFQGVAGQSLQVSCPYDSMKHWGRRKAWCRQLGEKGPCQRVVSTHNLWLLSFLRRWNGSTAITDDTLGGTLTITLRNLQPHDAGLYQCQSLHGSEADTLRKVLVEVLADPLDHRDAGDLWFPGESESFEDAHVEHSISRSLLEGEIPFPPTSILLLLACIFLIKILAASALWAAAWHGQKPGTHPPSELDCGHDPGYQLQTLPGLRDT
T1 sequence (O43914 22-113 partner): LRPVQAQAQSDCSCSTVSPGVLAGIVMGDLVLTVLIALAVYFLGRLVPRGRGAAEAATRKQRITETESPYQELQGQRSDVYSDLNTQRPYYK
Briefly: TREM2 agonist potency by cellular phosphorylation of Syk (AlphaLisa) in HEK293T-hTREM2 cells. Format: cell-based. The settings on record: HEK293 cells expressing human TREM2 and DAP12, Table D. How it is done:
In Vitro Measurement of Triggering Receptor Expressed on Myeloid Cells 2 Activity Using Cellular Phosphorylation of Spleen Tyrosine Kinase (“Syk”) Assays
Measurement of TREM2 agonist potency was done using a HEK cell line expressing human TREM2 and DAP12 (HEK293T-hTREM2 cells). Binding of small molecules to, and activation of, TREM2 increases the phosphorylation of Syk. The resultant levels of Syk phosphorylation are measured using a commercial AlphaLisa reagent kit. To perform the assay, HEK-hTREM2 cells were plated at 14,000 cells per well in a 384 well plate, in 25 μL of complete growth media and incubated at 37° C., 5% CO2 for 20-24 hours.
Prior to the assay, test compounds were diluted in the 384 well plates in assay buffer and allowed to equilibrate for 30 minutes. Growth media was removed from cell plates by inversion on blotting paper, and 25 μL of test articles in assay buffer was added to cells. Cells were incubated for 45 minutes at room temperature. After 45 minutes, assay buffer was removed and 10 μL of lysis buffer was added. Plates were shaken for 20 minutes at 350 RPM at room temperature. After complete lysis, AlphaLisa reagents were added to the lysate, and fluourescence intensity was measured using a Perkin Elmer Envision plate reader. Intensities were used to generate a standard curve, and % activation was calculated. Curve fitting was performed using Prism v9 software, log(agonist) vs response-variable slope (four parameters), and EC50s were calculated from the curve fit.
This assay may be used to test any of the compounds described herein to assess and characterize a compound's ability to act as an agonist of TREM2.
`[2H]C([2H])([2H])c1nc2nc([C@H]3CCO[C@@H](c4cnn(C([2H])([2H])[2H])c4)C3)nc(-c3ccc(C)cc3)c2nc1C([2H])([2H])[2H]` [Example 173, 6,7-bis(methyl-d3)-2-((2R,4S)-2-(1-(methyl-d3)-1H-pyrazol-4-yl)tetrahydro-2H-pyran-4-yl)-4-(p-tolyl)pteridine] returned an EC50 of 50 to 500 nM.

As to `Cc1cnc2c(-c3ccc(F)cc3F)nc(N3C[C@@H](c4cnn(C5CC5)c4)O[C@@H](C)C3)nc2n1` [Example 114, (2R,6S)-2-(1-cyclopropyl-1H-pyrazol-4-yl)-4-(4-(2,4-difluorophenyl)-7-methylpteridin-2-yl)-6-methylmorpholine], the EC50 lay in the range of 50 to 500 nM.

Consider `Cc1cc2nc([C@H]3CCO[C@@H](c4cnn(C5CC5)c4)C3)nc(-c3ccc(Cl)cc3F)c2nc1C` [Example 222, 4-(4-chloro-2-fluorophenyl)-2-((2R,4S)-2-(1-cyclopropyl-1H-pyrazol-4-yl)tetrahydro-2H-pyran-4-yl)-6,7-dimethylpyrido[3,2-d]pyrimidine], for which the EC50 lay in the range of 500 to 3000 nM.

`[2H]C([2H])([2H])n1cc([C@H]2C[C@@H](c3nc(-c4ccc(F)cc4F)c4nc(C)c(C)nc4n3)CCO2)cn1` [Example 156]: the EC50 was 50 to 500 nM.

With `Cc1nc2cc([C@@H]3CCO[C@@H](c4cnn(C5CC5)c4)C3)cc(-c3ccc(Cl)cc3F)c2nc1C` [Example 230, 5-(4-chloro-2-fluorophenyl)-7-((2R,4R)-2-(1-cyclopropyl-1H-pyrazol-4-yl)tetrahydro-2H-pyran-4-yl)-2,3-dimethylquinoxaline], the EC50 was in the range of 3000 to 100000 nM.

In turn, `Cc1nc2nc(C3CCOC(c4cc(C5CC5)n[nH]4)C3)nc(-c3ccc(F)cc3F)c2nc1C` (stereo not shown) [Example 166, 2-(2-(3-cyclopropyl-1H-pyrazol-5-yl)tetrahydro-2H-pyran-4-yl)-4-(2,4-difluorophenyl)-6,7-dimethylpteridine] showed an EC50 of 50 to 500 nM.

Take `Cc1ccc2c(-c3ccc(F)cc3F)cc([C@H]3CCO[C@@H](c4cnn(C5CC5)c4)C3)nc2n1` [Example 231]: the EC50 lay within 50 to 500 nM.

Compound `Cc1nc2nc(C3CCOC(c4cn[nH]c4)C3)nc(-c3ccc(F)cc3F)c2nc1C` (stereo not shown) [Example 167, 2-(2-(1H-pyrazol-4-yl)tetrahydro-2H-pyran-4-yl)-4-(2,4-difluorophenyl)-6,7-dimethylpteridine] displayed an EC50 of 50 to 500 nM.

As for `Cc1nc2nc(N3CCO[C@@H](c4cnn(C5CC5)c4)C3)nc(-c3ccc4c(c3)CC4)c2nc1C` [Example 240, (S)-4-(4-(bicyclo[4.2.0]octa-1,3,5-trien-3-yl)-6,7-dimethylpteridin-2-yl)-2-(1-cyclopropyl-1H-pyrazol-4-yl)morpholine], the EC50 lay within 50 to 500 nM.

On to `Cc1cnc2c(-c3ccc(Cl)cc3F)nc([C@H]3C[C@@H](C)O[C@@H](c4cnn(C5CC5)c4)C3)nc2n1` [Example 129, 4-(4-chloro-2-fluorophenyl)-2-((2R,4S,6R)-2-(1-cyclopropyl-1H-pyrazol-4-yl)-6-methyltetrahydro-2H-pyran-4-yl)-7-methylpteridine], for which the EC50 lay in the range of 50 to 500 nM.

Regarding `Cc1nc2cc([C@H]3CCO[C@@H](c4cnn(C5CC5)c4)C3)cc(-c3ccc(Cl)cc3F)c2nc1C` [Example 228, 5-(4-chloro-2-fluorophenyl)-7-((2R,4S)-2-(1-cyclopropyl-1H-pyrazol-4-yl)tetrahydro-2H-pyran-4-yl)-2,3-dimethylquinoxaline], the EC50 lay in the range of 50 to 500 nM.

`Cc1cc([C@H]2C[C@@H](c3nc(-c4ccc(Cl)c(F)c4F)c4ncc(C)nc4n3)CCO2)ccn1` (racemic) [Example 89, 4-(4-chloro-2,3-difluorophenyl)-7-methyl-2-(2-(2-methylpyridin-4-yl)tetrahydro-2H-pyran-4-yl)pteridine] registered an EC50 of less than 50 nM.

`Cc1nc2nc(C3CCOC(c4nc(C5CC5)n[nH]4)C3)nc(-c3ccc(F)cc3F)c2nc1C` (stereo not shown) [Example 169]: the EC50 fell in the range of 500 to 3000 nM.

Compound `[2H]C([2H])([2H])c1nc2nc([C@@H]3CCO[C@H](c4cnn(C([2H])([2H])[2H])c4)C3)nc(-c3ccc(C)cc3)c2nc1C([2H])([2H])[2H]` [Example 172, 6,7-bis(methyl-d3)-2-((2S,4R)-2-(1-(methyl-d3)-1H-pyrazol-4-yl)tetrahydro-2H-pyran-4-yl)-4-(p-tolyl)pteridine] returned an EC50 of 3000 to 100000 nM.

Regarding `Cc1cc([C@H]2C[C@@H](c3nc(-c4ccc(C(F)(F)F)nc4)c4nc(C)c(C)nc4n3)CCO2)ccn1` (racemic) [Example 4, 6,7-dimethyl-2-((2R,4S)-2-(2-methylpyridin-4-yl)tetrahydro-2H-pyran-4-yl)-4-(6-(trifluoromethyl)pyridin-3-yl)pteridine], the EC50 fell in the range of 50 to 500 nM.

The same experiment, now with this note: HEK293 cells expressing human TREM2 and DAP12, Table D-2.
Compound `Cc1nc2nc(N3C[C@@H](c4cnn(C)c4)O[C@@H](C4CC4)C3)nc(-c3ccc(F)cc3F)c2nc1C` [Example I-1674, (2S,6R)-2-cyclopropyl-4-[4-(2,4-difluorophenyl)-6,7-dimethyl-pteridin-2-yl]-6-(1-methylpyrazol-4-yl)morpholine] gave an EC50 of 50 to 500 nM.

For the compound `Cc1nc2nc([C@H]3CCO[C@@H](c4cnn(C5CC5)c4)C3)nc(-c3ccc(Cl)cc3F)c2nc1C(F)F` [Example I-1099, 4-(4-chloro-2-fluoro-phenyl)-2-[(2R,4S)-2-(1-cyclopropylpyrazol-4-yl)tetrahydropyran-4-yl]-6-(difluoromethyl)-7-methyl-pteridine], the EC50 was less than 50 nM.

The compound `Cc1nc2nc(N3CCCO[C@H](c4cnn(C5CC5)c4)C3)nc(-c3ccc(F)cc3F)c2nc1C` (stereo in doubt) [Example I-1144, 2-(1-cyclopropyl-1H-pyrazol-4-yl)-4-(4-(2,4-difluorophenyl)-6,7-dimethylpteridin-2-yl)-1,4-oxazepane] showed an EC50 of 500 to 3000 nM.

As for `Cc1cc(F)c(-c2nc([C@H]3CCO[C@@H](c4cnn(C5CC5)c4)C3)nc3nc(C)c(C)nc23)cc1F` [Example I-1572, 2-[(2R,4S)-2-(1-cyclopropylpyrazol-4-yl)tetrahydropyran-4-yl]-4-(2,5-difluoro-4-methyl-phenyl)-6,7-dimethyl-pteridine], the EC50 was less than 50 nM.

`Cc1nc2cc([C@H]3CCO[C@@H](c4cnn(C5CC5)c4)C3)nc(-c3ccc(F)cc3F)c2nc1CC#N` [Example I-1451, 2-(7-((2R,4S)-2-(1-cyclopropyl-1H-pyrazol-4-yl)tetrahydro-2H-pyran-4-yl)-5-(2,4-difluorophenyl)-2-methylpyrido[3,4-b]pyrazin-3-yl)acetonitrile] registered an EC50 of 500 to 3000 nM.

In the case of `Cc1nc2nc(N3C[C@H](CO)O[C@H](c4cnn(C5CC5)c4)C3)nc(-c3ccc(F)cc3F)c2nc1C` [Example I-1334, [(2R,6R)-6-(1-cyclopropylpyrazol-4-yl)-4-[4-(2,4-difluorophenyl)-6,7-dimethyl-pteridin-2-yl]morpholin-2-yl]methanol], the EC50 lay within 3000 to 100000 nM.

Compound `Cc1nc2nc([C@H]3CCO[C@@H](c4cnn(C5CC5)c4)C3)nc(-c3ccc(F)cc3F)c2nc1C1CCCCC1` [Example I-1744, 6-cyclohexyl-2-((2R,4S)-2-(1-cyclopropyl-1H-pyrazol-4-yl)tetrahydro-2H-pyran-4-yl)-4-(2,4-difluorophenyl)-7-methylpteridine] returned an EC50 of 50 to 500 nM.
